Columns and labels:
[1] = system: GR (glyphosate resistant) palmer amaranth (AMAPA); assay: Greenhouse pre-emergent efficacy, Example 3B; format: in vivo, Amaranthus palmeri; details: rates tested (½× and 1×)
Text: (§1) ACC, DFF and MRB were used as the commercial products Warrant®, Brodal® and TriCor® DF as described in Example 3A above. Further, also a DFF+MRB pre-mix (200 g/L DFF+400 g/L MRB, suspension concentrate) was used. For GR (glyphosate resistant) palmer amaranth (AMAPA), at 1× rate, all 2- and 3-way treatments provided >95% control. Except for the DFF+MRB pre-mix, these treatments also provided >95% control of GR AMAPA at ½× rate as well. No single active ingredient provided acceptable control of GR AMAPA in this trial.

proso millet (PANMI) = assay: Greenhouse pre-emergent efficacy, Example 3B; format: in vivo, Panicum miliaceum; details: both rates tested (½× and 1×)
Text: as §1

[2] = system: glyphosate resistant Canola (Roundup Ready® Canola); assay: Greenhouse post-emergent efficacy in glyphosate resistant Canola, Example 3C; format: in vivo; details: visual rating 14 DAT
Experimental: ACC and DFF were used as the commercial products Warrant® and Brodal® as described in Example 3A above. The seeds of glyphosate resistant Canola (Roundup Ready® Canola) were planted in 3.5-inches (8.89 cm) square plastic pots filled with a potting media of 75% silt loam and 25% Redi-earth (Sun Gro, Bellevue, Wash.). The temperature conditions were 22° C. day and 17° C. night with 14 hours of supplemental light (approximately 600 microeinsteins). The pots are placed in a controlled-environment greenhouse equipped with sub-irrigation. The treatments applications were applied to the plants with a track sprayer generally using a TTI110015 nozzle spray nozzle. The spray nozzle was 16 inches (40.64 cm) above the top of the plants and a spray volume rate of about 140 L/ha was applied. The plants were sprayed when canola was at the V3-V4 growth stage. Visual ratings (% control) were collected at 14 DAT.

[3] = system: AMAPA (WR-2015-002), resistant against glyphosate, PPO-, HPPD- and ALS-inhibitor herbicides; assay: Greenhouse pre-emergent efficacy on multiple resistant AMAPA, Example 3D; format: in vivo, Amaranthus palmeri; details: 21 DAT
Experimental: (§2) Premixes of present disclosure were compared with ACC and DFF used as the commercial products Warrant® and Brodal® as described in Example 3A above, as well as a corresponding tank-mix of ACC+DFF. Two different pre-mix formulations according to the present disclosure were evaluated for pre-emergent efficacy on the following difficult to control multiple resistant palmer amaranth (Amaranthus palmeri, AMAPA) species: AMAPA (WR-2015-002), resistant against glyphosate, PPO-, HPPD- and ALS-inhibitor herbicides; and AMAPA (WR-2015-008), resistant against glyphosate and metribuzin (PSII-inhibitor), PPO-, HPPD- and ALS-inhibitor herbicides.
(§3) At 21 DAT (days after treatment), visual percent control as well as fresh biomass ratings were recorded for all replications. […] Percent control was then calculated based on the respective untreated control plants.

[4] = system: AMAPA (WR-2015-008), resistant against glyphosate and metribuzin (PSII-inhibitor), PPO-, HPPD- and ALS-inhibitor herbicides; assay: as above; format: in vivo, Amaranthus palmeri; details: 21 DAT
Experimental: as §2, §3

[5] = 25° C.; cited from earlier work
[6] = group line over the three rates (1×, ½×, ¼×)

SMILES | control of GR AMAPA, in words [1] | control of proso millet (PANMI), in words (proso millet (PANMI)) | Canola Crop Injury Average [2, 6] | Canola Crop Injury Average ([2]; ¼× (ACC 315, DFF 38 g ai/ha)) | Canola Crop Injury Average ([2]; ½× (ACC 630, DFF 75 g ai/ha)) | Injury Average AMAPA (WR-2015-002) ([3]; 1× (ACC 1260, DFF 150 g ai/ha)) | Injury Average AMAPA (WR-2015-002) ([3]; ½× (ACC 630, DFF 75 g ai/ha)) | Injury Average AMAPA (WR-2015-008) ([4]; 1× (ACC 1260, DFF 150 g ai/ha)) | Injury Average AMAPA (WR-2015-008) ([4]; ½× (ACC 630, DFF 75 g ai/ha)) | water solubility [5]
O=C(Nc1ccc(F)cc1F)c1cccnc1Oc1cccc(C(F)(F)F)c1 [DFF, N-(2,4-difluorophenyl)-2-[3-(trifluoromethyl)phenoxy]-3-pyridinecarboxamide] | weak control | weak control | 18.3% | 3.1% | 13.8% | 70.6% | 51.3% | 75.6% | 65.6% | about 50 μg/L
CCOCN(C(=O)CCl)c1c(C)cccc1CC [ACC, 2-chloro-N-(ethoxymethyl)-N-(2-ethyl-6-methylphenyl)acetamide] | weak control | weak control | 6.7% | 0.0% | 2.5% | 81.6% | 61.9% | 73.8% | 60.6% | 
